Test results as given in the NIST ThermoML archive (doi:10.1016/j.fluid.2013.12.017).
Numbers after ± are expanded uncertainties.

Experiment: molar heat capacity at constant pressure
Conditions: 101 kPa, Liquid, Small sample (50 mg) DSC

## CCC(N)(CO)CO [2-amino-2-ethyl-1,3-propanediol]
303.15 K
  molar heat capacity at constant pressure: 367.5 ± 16 J/K/mol
308.15 K
  molar heat capacity at constant pressure: 370.5 ± 16 J/K/mol
313.15 K
  molar heat capacity at constant pressure: 374.1 ± 16 J/K/mol
318.15 K
  molar heat capacity at constant pressure: 378 ± 16 J/K/mol
323.15 K
  molar heat capacity at constant pressure: 381.5 ± 16 J/K/mol
328.15 K
  molar heat capacity at constant pressure: 385.8 ± 16 J/K/mol
333.15 K
  molar heat capacity at constant pressure: 389.9 ± 16 J/K/mol
338.15 K
  molar heat capacity at constant pressure: 393.9 ± 17 J/K/mol
343.15 K
  molar heat capacity at constant pressure: 398.6 ± 17 J/K/mol
348.15 K
  molar heat capacity at constant pressure: 403.1 ± 17 J/K/mol
353.15 K
  molar heat capacity at constant pressure: 408.2 ± 17 J/K/mol
